In patent publication EP2257297B1, “COMPOUNDS FOR USE IN THE TREATMENT OF ACNE, SEBORRHOEA AND SEBHORROEIC DERMATITIS, OR FOR REDUCING SEBUM SECRETION” (priority 2008, dated 2009) one finds IC50 data, which are given here for 28 molecules.

pIC50: −log10 of the molar value.

The target of the assay is T1, human MC5R (Homo sapiens, UniProt P33032).
T1 construct: purchased Perkin Elmer RBXMC5M400UA
T1 sequence (P33032 whole entry): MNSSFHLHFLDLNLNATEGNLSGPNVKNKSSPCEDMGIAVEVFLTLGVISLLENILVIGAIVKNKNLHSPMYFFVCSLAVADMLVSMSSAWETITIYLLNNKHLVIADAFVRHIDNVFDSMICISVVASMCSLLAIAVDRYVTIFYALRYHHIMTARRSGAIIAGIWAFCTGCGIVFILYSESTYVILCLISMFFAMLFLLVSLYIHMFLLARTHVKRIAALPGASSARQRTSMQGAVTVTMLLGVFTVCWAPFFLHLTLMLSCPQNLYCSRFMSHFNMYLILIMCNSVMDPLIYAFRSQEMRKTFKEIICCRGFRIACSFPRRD
Nature of the assay: Human MC5R radioligand binding assay ([125I] NDP-MSH displacement, hMC5R membranes). To be noted: hMC5R assay as in Example 102; compounds tested as trifluoroacetate or hydrochloride salts, or as free base. Here is the method: After incubation for 10 mins the phosphate buffer containing the iodine was added to NDP-MSH (10 ul at 1 mg/mL) in a separate eppendorf tube. This was incubated for a further 10 mins.
Resuspended membranes were kept on ice until they were added to the wells of the plate.
Assays were performed in 96 well polypropylene plates. […] This was incubated for 1 hr at 37 °C. Non-specific binding was determined with […] NDP-MSH. Plates were filtered using a Tomtec cell harvester with GF/A filters (Wallac) (presoaked in 0.6% polyethylenimine) and washed three times with 1.0 mL ice-cold wash buffer (the above incubation buffer without 1,10-phenanthroline and Complete™ protease inhibitor tablet). The filters were dried in a 37 °C oven, placed in a sample bag and 5 mL Betaplatescint (Wallac) was added. Prepared filters were counted in cassettes in a Microbeta Trilux (Wallac) for 1 min. […] Data analysis was performed using GraphPad Prism 4, employing competition binding with a single site model and a fixed Hill coefficient. The following equation was used: Y = Bottom + (Top-Bottom)/1/10^(X-logEC50), where X = log(concentration) and Y = binding to fit the data.
As to `N=C(N)NCCC[C@@H]1N[C@H](CNC(=O)c2cc3ccccc3cn2)CCN(CC(c2ccccc2)c2ccccc2)C1=O` [Compound 114, N-(((3S,5S)-1-(2,2-diphenylethyl)-3-(3-guanidinopropyl)-2-oxo-1,4-diazepan-5-yl)methyl)isoquinoline-3-carboxamide], the pIC50 (commonly the negative decadic logarithm of the IC50, by convention in mol/L) is above 6.00.

As to `N=C(N)NCCC[C@@H]1N[C@H](CNC(=O)c2ccccc2)CCN(CC(c2ccccc2)c2ccccc2)C1=O` [Compound 115, N-(((3S,5S)-1-(2,2-diphenylethyl)-3-(3-guanidinopropyl)-2-oxo-1,4-diazepan-5-yl)methyl)benzamide], the pIC50 was above 6.00.

Turning to `N=C(N)NCCC[C@@H]1N[C@H](CNC(=O)c2ccc3ccccc3n2)CCN(CC(c2ccccc2)c2ccccc2)C1=O` [Compound 116, N-(((3S,5S)-1-(2,2-diphenylethyl)-3-(3-guanidinopropyl)-2-oxo-1,4-diazepan-5-yl)methyl)quinoline-2-carboxamide], the negative-log IC50 (pIC50) was above 6.00.

Regarding `NCCCC[C@@H]1N[C@H](CNC(=O)c2ccc3ccccc3c2)CCN(Cc2cccc3ccccc23)C1=O` [Compound 117, N-(((3S,5S)-3-(4-aminobutyl)-1-(naphthalen-1-ylmethyl)-2-oxo-1,4-diazepan-5-yl)methyl)-2-naphthamide], the pIC50 was above 6.00.

On to `NCCCC[C@@H]1N[C@H](CNC(=O)Cc2ccc3ccccc3c2)CCN(Cc2cccc3ccccc23)C1=O` [Compound 118, N-(((3S,5S)-3-(4-aminobutyl)-1-(naphthalen-1-ylmethyl)-2-oxo-1,4-diazepan-5-yl)methyl)-2-(naphthalen-2-yl)acetamide], for which the pIC50 was above 5.00.

With `NCCCC[C@@H]1N[C@H](CNC(=O)c2ccc3ccccc3c2)CCN(Cc2ccc3ccccc3c2)C1=O` [Compound 122, N-(((3S,5S)-3-(4-aminobutyl)-1-(naphthalen-2-ylmethyl)-2-oxo-1,4-diazepan-5-yl)methyl)-2-naphthamide], the pIC50 is above 6.00.

With `NCCCC[C@@H]1N[C@H](CNC(=O)Cc2ccc3ccccc3c2)CCN(Cc2ccc3ccccc3c2)C1=O` [Compound 123, N-(((3S,5S)-3-(4-aminobutyl)-1-(naphthalen-2-ylmethyl)-2-oxo-1,4-diazepan-5-yl)methyl)-2-(naphthalen-2-yl)acetamide], the pIC50 is above 5.00.

On to `NCCCC[C@@H]1N[C@H](CNC(=O)c2cccc3ccccc23)CCN(Cc2ccc3ccccc3c2)C1=O` [Compound 124, N-(((3S,5S)-3-(4-aminobutyl)-1-(naphthalen-2-ylmethyl)-2-oxo-1,4-diazepan-5-yl)methyl)-1-naphthamide], for which the pIC50 was above 5.00.

For the molecule `NCCCC[C@@H]1N[C@H](CNC(=O)Cc2cccc3ccccc23)CCN(Cc2ccc3ccccc3c2)C1=O` [Compound 125, N-(((3S,5S)-3-(4-aminobutyl)-1-(naphthalen-2-ylmethyl)-2-oxo-1,4-diazepan-5-yl)methyl)-2-(naphthalen-1-yl)acetamide], the pIC50 is above 5.00.

Turning to `NCCCC[C@@H]1N[C@H](CNC(=O)c2ccc3ccccc3c2)CCN(CC(c2ccccc2)c2ccccc2)C1=O` [Compound 126, N-(((3S,5S)-3-(4-aminobutyl)-1-(2,2-diphenylethyl)-2-oxo-1,4-diazepan-5-yl)methyl)-2-naphthamide], the pIC50 is above 6.00.

As for `N=C(N)NCCC[C@@H]1N[C@H](CNC(=O)C2Cc3ccccc3C2)CCN(CC(c2ccccc2)c2ccccc2)C1=O` [Compound 133, N-(((3S,5S)-1-(2,2-diphenylethyl)-3-(3-guanidinopropyl)-2-oxo-1,4-diazepan-5-yl)methyl)-2,3-dihydro-1H-indene-2-carboxamide], the pIC50 was above 5.00.

With `N=C(N)NCCC[C@@H]1N[C@H](CNC(=O)c2ccc(Cl)cc2Cl)CCN(CC(c2ccccc2)c2ccccc2)C1=O` [Compound 136, 2,4-dichloro-N-(((3S,5S)-1-(2,2-diphenylethyl)-3-(3-guanidinopropyl)-2-oxo-1,4-diazepan-5-yl)methyl)benzamide], the pIC50 is above 7.00.

In the case of `N=C(N)NCCC[C@@H]1N[C@H](CNC(=O)c2cc(Cl)ccc2Cl)CCN(CC(c2ccccc2)c2ccccc2)C1=O` [Compound 137, 2,5-dichloro-N-(((3S,5S)-1-(2,2-diphenylethyl)-3-(3-guanidinopropyl)-2-oxo-1,4-diazepan-5-yl)methyl)benzamide], the pIC50 was above 6.00.

Turning to `N=C(N)NCCC[C@@H]1N[C@H](CNC(=O)C2CCCCC2)CCN(CC(c2ccccc2)c2ccccc2)C1=O` [Compound 139, N-(((3S,5S)-1-(2,2-diphenylethyl)-3-(3-guanidinopropyl)-2-oxo-1,4-diazepan-5-yl)methyl)cyclohexanecarboxamide], the pIC50 is above 5.00.

Consider `N=C(N)NCCC[C@@H]1N[C@H](CNC(=O)c2cc3ccccc3[nH]2)CCN(CC(c2ccccc2)c2ccccc2)C1=O` [Compound 142, N-(((3S,5S)-1-(2,2-diphenylethyl)-3-(3-guanidinopropyl)-2-oxo-1,4-diazepan-5-yl)methyl)-1H-indole-2-carboxamide], for which the pIC50 was above 7.00.

`N=C(N)NCCC[C@@H]1N[C@H](CNC(=O)CCc2ccccc2)CCN(CC(c2ccccc2)c2ccccc2)C1=O` [Compound 143, N-(((3S,5S)-1-(2,2-diphenylethyl)-3-(3-guanidinopropyl)-2-oxo-1,4-diazepan-5-yl)methyl)-3-phenylpropanamide]: the pIC50 is above 6.00.

Consider `Cc1ccc(C(=O)NC[C@@H]2CCN(CC(c3ccccc3)c3ccccc3)C(=O)[C@H](CCCNC(=N)N)N2)cc1C` [Compound 144, N-(((3S,5S)-1-(2,2-diphenylethyl)-3-(3-guanidinopropyl)-2-oxo-1,4-diazepan-5-yl)methyl)-3,4-dimethylbenzamide], for which the pIC50 is above 7.00.

In the case of `CC(C)(C)c1ccc(C(=O)NC[C@@H]2CCN(CC(c3ccccc3)c3ccccc3)C(=O)[C@H](CCCNC(=N)N)N2)cc1` [Compound 145, 4-tert-butyl-N-(((3S,5S)-1-(2,2-diphenylethyl)-3-(3-guanidinopropyl)-2-oxo-1,4-diazepan-5-yl)methyl)benzamide], the pIC50 was above 6.00.

Consider `COc1ccc(C(=O)NC[C@@H]2CCN(CC(c3ccccc3)c3ccccc3)C(=O)[C@H](CCCNC(=N)N)N2)c(OC)c1` [Compound 146, N-(((3S,5S)-1-(2,2-diphenylethyl)-3-(3-guanidinopropyl)-2-oxo-1,4-diazepan-5-yl)methyl)-2,4-dimethoxybenzamide], for which the pIC50 was above 5.00.

For `N=C(N)NCCC[C@@H]1N[C@H](CNC(=O)CC2CCCCC2)CCN(CC(c2ccccc2)c2ccccc2)C1=O` [Compound 147, 2-cyclohexyl-N-(((3S,5S)-1-(2,2-diphenylethyl)-3-(3-guanidinopropyl)-2-oxo-1,4-diazepan-5-yl)methyl)acetamide], the pIC50 is above 6.00.

In the case of `N=C(N)NCCC[C@@H]1N[C@H](CNC(=O)c2ccc3c(c2)OCO3)CCN(CC(c2ccccc2)c2ccccc2)C1=O` [Compound 148, N-(((3S,5S)-1-(2,2-diphenylethyl)-3-(3-guanidinopropyl)-2-oxo-1,4-diazepan-5-yl)methyl)benzo[d][1,3]dioxole-5-carboxamide], the pIC50 is above 6.00.

Consider `N=C(N)NCCC[C@@H]1N[C@H](CNC(=O)c2ccc3[nH]cnc3c2)CCN(CC(c2ccccc2)c2ccccc2)C1=O` [Compound 149, N-(((3S,5S)-1-(2,2-diphenylethyl)-3-(3-guanidinopropyl)-2-oxo-1,4-diazepan-5-yl)methyl)-1H-benzo[d]imidazole-5-carboxamide], for which the pIC50 was above 5.00.

Take `N=C(N)NCCC[C@@H]1N[C@H](CNC(=O)c2ccc3[nH]nnc3c2)CCN(CC(c2ccccc2)c2ccccc2)C1=O` [Compound 150, N-(((3S,5S)-1-(2,2-diphenylethyl)-3-(3-guanidinopropyl)-2-oxo-1,4-diazepan-5-yl)methyl)-1H-benzo[d][1,2,3]triazole-5-carboxamide]: the pIC50 was above 5.00.

As for `N=C(N)NCCC[C@@H]1N[C@H](CNC(=O)C2CCCC2)CCN(CC(c2ccccc2)c2ccccc2)C1=O` [Compound 151, N-(((3S,5S)-1-(2,2-diphenylethyl)-3-(3-guanidinopropyl)-2-oxo-1,4-diazepan-5-yl)methyl)cyclopentanecarboxamide], the pIC50 was above 5.00.

As to `N=C(N)NCCC[C@@H]1N[C@H](CNC(=O)c2ccc(Cl)c(Cl)c2)CCN(CC(c2ccccc2)c2ccccc2)C1=O` [Compound 152, 3,4-dichloro-N-(((3S,5S)-1-(2,2-diphenylethyl)-3-(3-guanidinopropyl)-2-oxo-1,4-diazepan-5-yl)methyl)benzamide], the pIC50 is above 7.00.

In the case of `N=C(N)NCCC[C@@H]1N[C@H](CNC(=O)c2cc(Cl)cc(Cl)c2)CCN(CC(c2ccccc2)c2ccccc2)C1=O` [Compound 154, 3,5-dichloro-N-(((3S,5S)-1-(2,2-diphenylethyl)-3-(3-guanidinopropyl)-2-oxo-1,4-diazepan-5-yl)methyl)benzamide], the pIC50 is above 6.00.

Consider `N=C(N)NCCC[C@@H]1N[C@H](CNC(=O)Cc2ccc(Cl)cc2Cl)CCN(CC(c2ccccc2)c2ccccc2)C1=O` [Compound 155, 2-(2,4-dichlorophenyl)-N-(((3S,5S)-1-(2,2-diphenylethyl)-3-(3-guanidinopropyl)-2-oxo-1,4-diazepan-5-yl)methyl)acetamide], for which the pIC50 was above 6.00.

As to `COc1c(C(=O)NC[C@@H]2CCN(CC(c3ccccc3)c3ccccc3)C(=O)[C@H](CCCNC(=N)N)N2)ccc2ccccc12` [Compound 156, N-(((3S,5S)-1-(2,2-diphenylethyl)-3-(3-guanidinopropyl)-2-oxo-1,4-diazepan-5-yl)methyl)-1-methoxy-2-naphthamide], the pIC50 was above 7.00.
